# Values joined by “and” are separate entries in the source; they are usually repeats but may differ in a detail not shown here. Equal values may be shown once.
# System: 777334-354-R2-J4-PDC tumor spheroids with HUVEC/MSC, viability
# Assay: Anticancer human tumor 777334-354-R2-J4-PDC patient-derived pancreatic adenocarcinoma cell line growth inhibition [GQUAD]
# Details: for viability, T/C: stronger effect = lower value
# From the text: DNA G-quadruplex Stabilizer Agents in Combinations in Complex Spheroids
# A high-throughput screen of multi-cell type tumor spheroids was designed to identify active combinations of DNA G-quadruplex stabilizer agents and targeted small molecules. Complex spheroids include a stromal component modeled by human endothelial cells (HUVEC) and fibroblasts modeled by human mesenchymal stem cells (MSCs). The concentration ranges selected for each drug and investigational agent were based upon clinically achievable concentrations if the clinical Cmax of the agent was known.
# Compounds. The drugs and investigational agents: pidnarulex (CX-5461; NSC782164), APTO-253 (NSC789042), BRACO-19 (NSC847499), peposertib (NSC802822), ceralasertib (NSC780249), elimusertib (NSC800525), camonsertib (NSC841442), AZD-1390 (NSC803789), olaparib (NSC753686), talazoparib (NSC767125), ART-558 (NSC835418), sotorasib (NSC818433), MRTX-1133 (NSC836407), SN-38 (NSC673596), topotecan (NSC609699), etoposide (NSC141540), doxorubicin (NSC123127), gemcitabine (NSC613327), 5-fluorouracil (NSC19893), paclitaxel (NSC125973), vemurafenib (NSC761431), panobinostat (NSC761190), R-306465 (JNJ-16241199; NSC773264), adavosertib (NSC754352), TP-3654 (NSC805149), carboplatin (NSC241240), KSQ-4279 (NSC840948), and staurosporine (NSC755774) were obtained from the National Cancer Institute (NCI) Developmental Therapeutics Program Chemical Repository (34). The FDA-approved anticancer drug set is available from the NCI Developmental Therapeutics Program. […] The stock solutions were prepared in dimethyl sulfoxide (DMSO, Sigma-Aldrich, St. Louis, MO, cat. D2650) at 800-fold the tested concentration and stored at -70 degrees C prior to their use. All drugs and investigational agents were tested over a range starting from a high concentration at or near the clinical Cmax and decreasing in half-log increments. If the clinical Cmax for an agent had not been determined, the highest concentration tested was 10 microM.
# 2.3 Cell Culture. All cells were maintained in an incubator at 37 degrees C and 5% CO2 with 95% humidity. The PDC lines were cultured according to standard operating procedures established by the NCI PDMR. All PDCs were thawed and cultured in Matrigel-coated flasks prepared with a working solution of 1X Ham's F-12 nutrient mix, without supplementation (Invitrogen, cat. 11765054), 100 U/mL penicillin-streptomycin (Invitrogen, cat. 15140122), and 2.5% Matrigel (Corning Inc., cat. 354248) for the first three passages. The 857933-349-R-J2-PDC line was cultured in 6C/Colon 1B media, which includes advanced DMEM/F-12 (Thermo Fisher Scientific, cat. 12634028), 10 mM HEPES (Thermo Fisher Scientific, cat. 15630080), 1X GlutaMAX supplement (Thermo Fisher Scientific, cat. 35050061), 0.1 mg/mL primocin (InvivoGen, cat. ant-pm-2), 10% defined fetal bovine serum, heat inactivated (HyClone Laboratories Inc., cat. SH30070.03HI), 50% L-WRN conditioned media (ATCC, cat. CRL-3276), 1.25 mM N-Acetyl-L-cysteine (Sigma-Aldrich, cat. A9165), 10 mM nicotinamide (Sigma-Aldrich, cat. N0636), 1X B-27 supplement (Thermo Fisher Scientific, cat. 17504044), 1X N-2 supplement (Thermo Fisher Scientific, cat. 17502048), 10 microM Y-27632 dihydrochloride (Tocris Bioscience, cat. 1254), and 50 ng/mL human EGF recombinant protein (Thermo Fisher Scientific, cat. PHG0311). The 485176-168-R4-J1-PDC line was cultured in Panc media, which includes all 6C/Colon 1B media components plus 100 ng/mL human FGF-10 (Thermo Fisher Scientific, cat. 100-26), 500 nM SB-431542 (Selleckchem, cat. S1067), and gastrin (Tocris, cat. 3006).
# […]
# 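Note: spheroids exposed to compounds for 7 days before readout.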
compound,measurement,setting,value
CC[C@@]1(O)C(=O)OCc2c1cc1n(c2=O)Cc2cc3c(CN(C)C)c(O)ccc3nc2-1,"viability, T/C",compound 0.000999 µM,102% and 101% and 87.9%
same,"viability, T/C",compound 0.00316 µM,98.6% and 112% and 91.4%
same,"viability, T/C",compound 0.00999 µM,95.8% and 97.9% and 93.1%
same,"viability, T/C",compound 0.0316 µM,87.9% and 83.3% and 90.2%
same,"viability, T/C",compound 0.0999 µM,68.3% and 59.5% and 61.7%
same,"viability, T/C",compound 0.316 µM,39.7% and 35.4% and 42.7%
same,IC50,curve of compound,209 nM and 154 nM and 203 nM
Nc1ccn(C2OC(CO)C(O)C2(F)F)c(=O)n1 (centres undefined),"viability, T/C",compound 0.0316 µM,91.5% and 76.4% and 76.8%
same,"viability, T/C",compound 0.1 µM,73% and 69.4% and 80%
same,"viability, T/C",compound 0.316 µM,64.9% and 57.5% and 76.6%
same,"viability, T/C",compound 1 µM,51.7% and 46.7% and 49.9%
same,"viability, T/C",compound 3.16 µM,41.5% and 36.5% and 39.1%
same,"viability, T/C",compound 10 µM,32.9% and 28.9% and 31.4%
same,IC50,curve of compound,1210 nM and 707 nM and 1050 nM
COc1cccc2c1C(=O)c1c(O)c3c(c(O)c1C2=O)CC(O)(C(=O)CO)CC3OC1CC(N)C(O)C(C)O1 (centres undefined),"viability, T/C",compound 0.0316 µM,95.8% and 98.8% and 102%
same,"viability, T/C",compound 0.1 µM,86.7% and 89.4% and 89.9%
same,"viability, T/C",compound 0.316 µM,69% and 68.8% and 73.9%
same,"viability, T/C",compound 1 µM,42% and 47.4% and 37.8%
same,"viability, T/C",compound 3.16 µM,22.2% and 23.6% and 27.6%
same,"viability, T/C",compound 10 µM,12.6% and 13% and 11.9%
same,IC50,curve of compound,713 nM and 819 nM and 733 nM
Cc1[nH]c2ccccc2c1CCNCc1ccc(/C=C/C(=O)NO)cc1,"viability, T/C",compound 0.000999 µM,99% and 100% (2×)
same,"viability, T/C",compound 0.00316 µM,91.5% and 99.1% and 97.5%
same,"viability, T/C",compound 0.00999 µM,106% and 114% and 102%
same,"viability, T/C",compound 0.0316 µM,93.5% and 98.6% and 91.6%
same,"viability, T/C",compound 0.0999 µM,72.8% and 72.4% and 75%
same,"viability, T/C",compound 0.316 µM,32.1% and 29.1% and 35.9%
same,IC50,curve of compound,190 nM and 181 nM and 208 nM
COc1ncnc(C2CC2)c1-c1ncc2cnn(Cc3ccc(-c4nc(C(F)(F)F)cn4C(C)C)cc3)c2n1,"viability, T/C",compound 0.0316 µM,102% and 98.3% (2×)
same,"viability, T/C",compound 0.1 µM,96.7% and 90.9% and 106%
same,"viability, T/C",compound 0.316 µM,103% and 98.9% and 98.6%
same,"viability, T/C",compound 1 µM,91.9% and 99.5% and 98.8%
same,"viability, T/C",compound 3.16 µM,102% and 100% and 99.3%
same,"viability, T/C",compound 10 µM,109% and 111% and 98.8%
same,IC50,curve of compound,> 10000 nM
CC1COCCN1c1cc(C2(S(C)(=N)=O)CC2)nc(-c2ccnc3[nH]ccc23)n1 (centres undefined) + Cc1cnc(CNC(=O)c2c(=O)c3ccc(N4CCCN(C)CC4)nc3n3c2sc2ccccc23)cn1,IC50,"curve of first compound, second compound 0.0316 µM",> 10000 nM
same,IC50,"curve of first compound, second compound 0.1 µM",> 10000 nM
same,IC50,"curve of first compound, second compound 0.316 µM",> 10000 nM
same,IC50,"curve of first compound, second compound 1 µM",> 10000 nM
same,IC50,"curve of first compound, second compound 3.16 µM",> 10000 nM
same,IC50,"curve of first compound, second compound 10 µM",> 10000 nM
same,"viability, T/C","second compound 0.0316 µM, first compound 0.0316 µM",103%
same,"viability, T/C","second compound 0.0316 µM, first compound 0.1 µM",85.7%
same,"viability, T/C","second compound 0.0316 µM, first compound 0.316 µM",113%
same,"viability, T/C","second compound 0.0316 µM, first compound 1 µM",93.9%
same,"viability, T/C","second compound 0.0316 µM, first compound 3.16 µM",99%
same,"viability, T/C","second compound 0.0316 µM, first compound 10 µM",53.8%
same,"viability, T/C","second compound 0.1 µM, first compound 0.0316 µM",112%
same,"viability, T/C","second compound 0.1 µM, first compound 0.1 µM",84.4%
same,"viability, T/C","second compound 0.1 µM, first compound 0.316 µM",94.8%
same,"viability, T/C","second compound 0.1 µM, first compound 1 µM",80.5%
same,"viability, T/C","second compound 0.1 µM, first compound 3.16 µM",88.9%
same,"viability, T/C","second compound 0.1 µM, first compound 10 µM",53%
same,"viability, T/C","second compound 0.316 µM, first compound 0.0316 µM",84.1%
same,"viability, T/C","second compound 0.316 µM, first compound 0.1 µM",87.4%
same,"viability, T/C","second compound 0.316 µM, first compound 0.316 µM",81.2%
same,"viability, T/C","second compound 0.316 µM, first compound 1 µM",82%
same,"viability, T/C","second compound 0.316 µM, first compound 3.16 µM",86.9%
same,"viability, T/C","second compound 0.316 µM, first compound 10 µM",52.3%
same,"viability, T/C","second compound 1 µM, first compound 0.0316 µM",76.2%
same,"viability, T/C","second compound 1 µM, first compound 0.1 µM",93.4%
same,"viability, T/C","second compound 1 µM, first compound 0.316 µM",78.5%
same,"viability, T/C","second compound 1 µM, first compound 1 µM",81.5%
same,"viability, T/C","second compound 1 µM, first compound 3.16 µM",68.6%
same,"viability, T/C","second compound 1 µM, first compound 10 µM",50.7%
same,"viability, T/C","second compound 3.16 µM, first compound 0.0316 µM",64.5%
same,"viability, T/C","second compound 3.16 µM, first compound 0.1 µM",57.1%
same,"viability, T/C","second compound 3.16 µM, first compound 0.316 µM",65%
same,"viability, T/C","second compound 3.16 µM, first compound 1 µM",58.7%
same,"viability, T/C","second compound 3.16 µM, first compound 3.16 µM",69.2%
same,"viability, T/C","second compound 3.16 µM, first compound 10 µM",54.7%
same,"viability, T/C","second compound 10 µM, first compound 0.0316 µM",56.5%
same,"viability, T/C","second compound 10 µM, first compound 0.1 µM",59.5%
same,"viability, T/C","second compound 10 µM, first compound 0.316 µM",53.5%
same,"viability, T/C","second compound 10 µM, first compound 1 µM",55.9%
same,"viability, T/C","second compound 10 µM, first compound 3.16 µM",57.5%
same,"viability, T/C","second compound 10 µM, first compound 10 µM",44.7%
Cc1cccc(N(C)C(=O)C2C(O)CCN2c2nc(C)cc(C(F)(F)F)c2C#N)c1 (centres undefined),"viability, T/C",compound 0.0316 µM,102% (2×) and 107%
same,"viability, T/C",compound 0.1 µM,108% and 104% and 87.8%
same,"viability, T/C",compound 0.316 µM,99.9% and 101% and 98.9%
same,"viability, T/C",compound 1 µM,87.3% and 100% and 95%
same,"viability, T/C",compound 3.16 µM,92.4% and 93.6% and 109%
same,"viability, T/C",compound 10 µM,96.5% and 85.7% and 94.7%
same,IC50,curve of compound,> 10000 nM

# — PubChem BioAssay AID2060499 (Molecular Pharmacology Branch, DTP, NCI, 2025)
